10 molecules from ChEMBL document CHEMBL1201862, “PubChem BioAssay data set” (2004) can be followed below.

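Step 1: Grow cells in 96-well plates. Step 2: Expose to compound for 48 hours at 5 concentrations. Step 3: Interpolate endpoints linearly; if unreached, use highest concentration. The concentration for 50% growth inhibition is given as GI50.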 The source made the active and inactive calls. Rule as the data show it: active = GI50 up to about 1.1 µM and inactive = higher.

Test systems include Malme-3M; K562; OVCAR-4; T47D; MCF7; NCI-H460; LOX IMVI; CAKI-1; M14; SN12C; A498; SK-MEL-2; HCT-15; MOLT-4; SW-620; HCC 2998; SF-268; U-251; SK-MEL-5; KM12.
What all share (test): NCI tumour cell line growth inhibition, 48 h

On to `Oc1cc2c3c(c1)CCCN3CCC2`, for which the GI50 with Malme-3M, with K562, with OVCAR-4, with T47D, with MCF7 and in the assay with NCI-H460 was > 10 µM (inactive) throughout. The GI50 with LOX IMVI, with CAKI-1, in the assay on M14, with SN12C, with A498 and in the assay on SK-MEL-2 was > 10 µM (inactive) throughout. The GI50 is greater than 10 µM in the assay with HCT-15; > 10 µM (inactive) in the assay on MOLT-4; > 10 µM (inactive) in the assay on SW-620; > 10 µM (inactive) with HCC 2998; > 10 µM (inactive) with SF-268; > 10 µM (inactive) in the assay on U-251. Moreover, the GI50 in the assay with SK-MEL-5 and in the assay with KM12 was > 10 µM (inactive) each time.

Take `CCCCCCCCCCCCCCCCOP(=O)(O)OP(=O)(O)OCC1OC(n2ccc(N)nc2=O)CC1O` (stereo not drawn): the GI50 in the assay on Malme-3M, in the assay on K562, in the assay with OVCAR-4, in the assay with T47D, in the assay on MCF7 and with NCI-H460 was > 100 µM (inactive) each time. Moreover, the GI50 in the assay with LOX IMVI, in the assay with CAKI-1, in the assay with M14, in the assay with SN12C, in the assay on A498 and in the assay with SK-MEL-2 was > 100 µM (inactive) each time. For the same molecule, the GI50 was greater than 100 µM in the assay with HCT-15; > 100 µM (inactive) in the assay on MOLT-4; > 100 µM (inactive) in the assay on SW-620; > 100 µM (inactive) in the assay with HCC 2998; > 100 µM (inactive) in the assay on SF-268; > 100 µM (inactive) in the assay on U-251. Further, the GI50 in the assay with SK-MEL-5 and in the assay on KM12 was > 100 µM (inactive) throughout.

In the case of `CCC1NC(=O)C1NC(=O)OC` (stereo not drawn), the GI50 in the assay with Malme-3M, in the assay with K562, in the assay on OVCAR-4, in the assay with T47D, with MCF7 and with NCI-H460 was > 100 µM (inactive) in each case. In addition, the GI50 in the assay with LOX IMVI, with CAKI-1, with M14, in the assay on SN12C, in the assay with A498 and in the assay with SK-MEL-2 was > 100 µM (inactive) throughout. Besides, the GI50 in the assay with HCT-15 is greater than 100 µM; in the assay on MOLT-4 it was > 100 µM (inactive); with SW-620 it was > 100 µM (inactive); in the assay with HCC 2998 it was > 100 µM (inactive); in the assay with U-251, > 100 µM (inactive); in the assay on SK-MEL-5, > 100 µM (inactive). Moreover, the GI50 in the assay with KM12 is > 100 µM (inactive).

Consider `C[C@H]1CCC/C=C/[C@@H]2C[C@H](OC3OC(CO)C(O)C(O)C3O)C[C@H]2[C@H](O)/C=C/C(=O)O1` (stereo partly drawn), for which the GI50 in the assay with Malme-3M is 17.8 µM (inactive); in the assay with K562, > 100 µM (inactive); with OVCAR-4, 78.5 µM (inactive); in the assay on T47D, > 100 µM (inactive); in the assay with MCF7 it was 62.4 µM (inactive); in the assay on NCI-H460, 78.9 µM (inactive). In addition, the GI50 in the assay on LOX IMVI was 36.1 µM (inactive); with CAKI-1, > 100 µM (inactive); in the assay with M14, 46.9 µM (inactive); in the assay with SN12C, > 100 µM (inactive); in the assay with A498, 25.5 µM (inactive); in the assay on SK-MEL-2, 49.5 µM (inactive). The GI50 with HCT-15 was 72.3 µM; with MOLT-4, > 100 µM (inactive); with SW-620, 35.9 µM (inactive); in the assay on HCC 2998 it was 29.7 µM (inactive); in the assay with SF-268 it was 72.8 µM (inactive); with U-251, 94 µM (inactive). Also, the GI50 is 17.2 µM (inactive) in the assay on SK-MEL-5 and 31.3 µM (inactive) with KM12.

As to `CN1CCN(c2cc3[nH]c(-c4ccc(Cl)cc4)nc3cc2F)CC1`, the GI50 is 10.5 µM (inactive) in the assay on Malme-3M; 3.78 µM (inactive) in the assay with K562; 22.8 µM (inactive) with OVCAR-4; 19.1 µM (inactive) with T47D; 7.82 µM (inactive) with MCF7; 11.5 µM (inactive) in the assay with NCI-H460. Moreover, the GI50 is 10.5 µM (inactive) in the assay on LOX IMVI; 19.5 µM (inactive) with CAKI-1; 2.84 µM (inactive) in the assay on M14; 26.7 µM (inactive) with SN12C; 18.2 µM (inactive) in the assay on A498; 16.8 µM (inactive) with SK-MEL-2. In addition, the GI50 with HCT-15 was 5.42 µM; in the assay with MOLT-4 it was 10.9 µM (inactive); with SW-620, 21.8 µM (inactive); with HCC 2998, 4.71 µM (inactive); in the assay on SF-268 it was 16.2 µM (inactive); with U-251, 21.4 µM (inactive). Also, the values for the GI50 in the assay on SK-MEL-5 and with KM12 were 10.6 µM (inactive) and 10.8 µM (inactive), respectively.

`Cc1ccc(-c2cc(-c3ccc(Cl)cc3)nc(/N=C3\C(=O)N(CN4CCOCC4)c4ccc(Cl)cc43)n2)cc1`: the GI50 is > 100 µM (inactive) with Malme-3M; 10.5 µM (inactive) in the assay on K562; 29.3 µM (inactive) in the assay with OVCAR-4; 17.3 µM (inactive) in the assay with T47D; 17.5 µM (inactive) with MCF7; 20.9 µM (inactive) with NCI-H460. For the same molecule, the GI50 in the assay with LOX IMVI was 31.8 µM (inactive); in the assay on CAKI-1 it was 23 µM (inactive); in the assay on M14, 26.4 µM (inactive); in the assay with SN12C, 24.7 µM (inactive); with A498, 20.5 µM (inactive); in the assay with SK-MEL-2, 20.1 µM (inactive). The GI50 was 23.2 µM in the assay on HCT-15; 1.1 µM (active) in the assay on MOLT-4; 6.49 µM (inactive) in the assay with SW-620; 19.1 µM (inactive) with HCC 2998; 22.6 µM (inactive) in the assay on SF-268; 17.7 µM (inactive) in the assay on U-251. The GI50 was 18.1 µM (inactive) with SK-MEL-5 and 22.2 µM (inactive) in the assay on KM12.

For `O=Cc1ccc(-c2cccs2)s1`, the GI50 with Malme-3M is > 100 µM (inactive); in the assay on K562, 34.3 µM (inactive); with OVCAR-4, 56.4 µM (inactive); in the assay with T47D it was 46.9 µM (inactive); in the assay with MCF7 it was 1.16 µM (inactive); in the assay with NCI-H460 it was 33.5 µM (inactive). Further, the GI50 with LOX IMVI was > 91.8 µM (inactive); in the assay with CAKI-1 it was 13.8 µM (inactive); in the assay on M14, > 100 µM (inactive); with SN12C, > 100 µM (inactive); in the assay on A498, 2.46 µM (inactive); in the assay with SK-MEL-2, > 100 µM (inactive). Also, the GI50 is greater than 100 µM in the assay on HCT-15; > 95.1 µM (inactive) in the assay with MOLT-4; 72.4 µM (inactive) with SW-620; 72.8 µM (inactive) in the assay with HCC 2998; > 96.8 µM (inactive) in the assay with SF-268; 12.2 µM (inactive) in the assay on U-251. Moreover, the GI50 with SK-MEL-5 was 58.1 µM (inactive); in the assay on KM12, > 100 µM (inactive).

In the case of `CC(C)=CCC[C@@H](C)C1=C(Nc2ccccc2F)C(=O)C(C)=C(O)C1=O`, the GI50 is 7.6 µM (inactive) in the assay with Malme-3M; 4.45 µM (inactive) in the assay on K562; 9.98 µM (inactive) in the assay on OVCAR-4; 13.6 µM (inactive) in the assay with T47D; 9.95 µM (inactive) with MCF7; 3.92 µM (inactive) in the assay on NCI-H460. Besides, the GI50 in the assay with LOX IMVI was 4.78 µM (inactive); in the assay with CAKI-1, 5.83 µM (inactive); in the assay with M14, 14.2 µM (inactive); with SN12C, 6.97 µM (inactive); in the assay on A498, 6.78 µM (inactive); with SK-MEL-2, 8.75 µM (inactive). Also, the GI50 was 3.77 µM in the assay with HCT-15; 5.46 µM (inactive) with MOLT-4; 5.98 µM (inactive) in the assay with SW-620; 7.59 µM (inactive) with HCC 2998; 5.47 µM (inactive) in the assay on SF-268; 8.49 µM (inactive) in the assay with U-251. In addition, the GI50 in the assay with SK-MEL-5 is 3.18 µM (inactive); in the assay with KM12, 4.16 µM (inactive).

With `CCN1CCC(O)(/C=C/c2ccc(C)cc2C)C(C(=O)/C=C/c2ccc(C)cc2C)C1` (stereo not drawn), the GI50 in the assay on Malme-3M is 5.82 µM (inactive); with K562 it was 3.13 µM (inactive); with OVCAR-4, 2.99 µM (inactive); in the assay on T47D, 2.39 µM (inactive); in the assay on MCF7, 2.69 µM (inactive); in the assay with NCI-H460 it was 1.35 µM (inactive). The GI50 was 1.76 µM (inactive) in the assay with LOX IMVI; 5.09 µM (inactive) in the assay on CAKI-1; 3.55 µM (inactive) in the assay with M14; 2.72 µM (inactive) with SN12C; 9.59 µM (inactive) in the assay on A498; 4.26 µM (inactive) in the assay on SK-MEL-2. Further, the GI50 was 1.93 µM in the assay on HCT-15; 1.28 µM (inactive) in the assay on MOLT-4; 3.16 µM (inactive) in the assay with SW-620; 1.69 µM (inactive) in the assay with HCC 2998; 2.4 µM (inactive) with SF-268; 3.39 µM (inactive) in the assay with U-251. Further, the GI50 in the assay with SK-MEL-5 is 3.04 µM (inactive); in the assay on KM12, 2.33 µM (inactive).

As for `COC(=O)C1=C(C)NC(C)=C(C(=O)OC)C1c1cccc(NO)c1`, the GI50 in the assay with Malme-3M is 16.4 µM (inactive); with K562, 4.76 µM (inactive); in the assay with OVCAR-4, 13.9 µM (inactive); in the assay with T47D, 13.5 µM (inactive); in the assay on MCF7 it was 19 µM (inactive); with NCI-H460, 15.1 µM (inactive). Moreover, the GI50 with LOX IMVI was 16 µM (inactive); in the assay on CAKI-1, 13.2 µM (inactive); in the assay on M14, 18.9 µM (inactive); in the assay on SN12C, 18.5 µM (inactive); with A498, > 100 µM (inactive); with SK-MEL-2, 15.2 µM (inactive). Further, the GI50 in the assay with HCT-15 is 19.3 µM; with SW-620, 13.7 µM (inactive); in the assay with HCC 2998, 56.8 µM (inactive); with SF-268, 16.6 µM (inactive); in the assay on U-251 it was 16.1 µM (inactive); in the assay on SK-MEL-5, 15.5 µM (inactive). Further, the GI50 with KM12 was 15.9 µM (inactive).
